The record followed here is US20240269139A1, “COMPOUNDS FOR TARGETED PROTEIN DEGRADATION OF KINASES” (DANA-FARBER CANCER INSTITUTE, INC., priority 2020, published 2024).

Read-outs that look alike come from different tables or passages of the source.

Type in all cases: cell-based
The target in assay [1] is protein kinases (human kinome) (Homo sapiens, UniProt Q16584).
Assay [2] deals with protein kinases (human kinome) (Homo sapiens, UniProt P41240). The settings on record: for logFC of CSK: Accession P41240; for logFC CSK: CSK (P41240), down.
Chain of protein kinases (human kinome) (Homo sapiens, UniProt P41240) (P41240 whole entry): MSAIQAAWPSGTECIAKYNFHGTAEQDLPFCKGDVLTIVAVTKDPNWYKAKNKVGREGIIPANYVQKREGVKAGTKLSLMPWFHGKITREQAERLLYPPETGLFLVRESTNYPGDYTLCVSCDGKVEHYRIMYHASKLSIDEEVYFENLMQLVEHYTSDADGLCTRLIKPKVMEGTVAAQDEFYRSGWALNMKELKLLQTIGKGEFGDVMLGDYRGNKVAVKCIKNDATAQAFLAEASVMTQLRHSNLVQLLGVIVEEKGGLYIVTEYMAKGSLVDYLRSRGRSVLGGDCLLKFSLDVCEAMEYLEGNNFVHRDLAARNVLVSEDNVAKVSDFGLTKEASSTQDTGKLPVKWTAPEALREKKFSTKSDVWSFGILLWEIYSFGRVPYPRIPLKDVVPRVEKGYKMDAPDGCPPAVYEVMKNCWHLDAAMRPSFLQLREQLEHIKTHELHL
For assay [3], the target named is protein kinases (human kinome) (Homo sapiens, UniProt P45984).
Chain of protein kinases (human kinome) (Homo sapiens, UniProt P45984) (P45984 whole entry): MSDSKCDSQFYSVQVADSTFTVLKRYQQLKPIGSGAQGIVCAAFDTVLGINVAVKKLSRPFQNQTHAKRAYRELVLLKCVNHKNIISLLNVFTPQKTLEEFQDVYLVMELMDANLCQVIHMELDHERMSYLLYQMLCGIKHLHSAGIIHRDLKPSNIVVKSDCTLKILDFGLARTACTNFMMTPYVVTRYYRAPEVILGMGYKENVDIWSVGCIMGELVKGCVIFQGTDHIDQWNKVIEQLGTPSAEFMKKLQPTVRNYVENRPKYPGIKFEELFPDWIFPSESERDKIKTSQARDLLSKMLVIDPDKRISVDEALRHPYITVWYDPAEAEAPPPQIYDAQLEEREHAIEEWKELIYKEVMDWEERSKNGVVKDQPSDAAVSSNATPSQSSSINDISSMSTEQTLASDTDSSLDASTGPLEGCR
For assay [4], the target named is protein kinases (human kinome) (Homo sapiens, UniProt Q00535). As to conditions: for logFC of CDK5: Accession Q00535.
Chain of protein kinases (human kinome) (Homo sapiens, UniProt Q00535) (Q00535 whole entry): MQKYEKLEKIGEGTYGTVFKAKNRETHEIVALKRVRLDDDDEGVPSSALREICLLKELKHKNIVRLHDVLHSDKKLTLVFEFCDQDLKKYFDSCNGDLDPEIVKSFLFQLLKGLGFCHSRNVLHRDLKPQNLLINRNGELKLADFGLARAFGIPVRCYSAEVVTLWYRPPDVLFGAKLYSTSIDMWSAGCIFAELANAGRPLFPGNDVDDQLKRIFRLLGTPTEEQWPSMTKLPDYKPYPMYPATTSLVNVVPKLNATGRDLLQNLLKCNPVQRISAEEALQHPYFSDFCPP
For assay [5], the target named is T1, protein kinases (human kinome) (Homo sapiens, UniProt Q53H12).
T1 sequence (Q53H12 1-422): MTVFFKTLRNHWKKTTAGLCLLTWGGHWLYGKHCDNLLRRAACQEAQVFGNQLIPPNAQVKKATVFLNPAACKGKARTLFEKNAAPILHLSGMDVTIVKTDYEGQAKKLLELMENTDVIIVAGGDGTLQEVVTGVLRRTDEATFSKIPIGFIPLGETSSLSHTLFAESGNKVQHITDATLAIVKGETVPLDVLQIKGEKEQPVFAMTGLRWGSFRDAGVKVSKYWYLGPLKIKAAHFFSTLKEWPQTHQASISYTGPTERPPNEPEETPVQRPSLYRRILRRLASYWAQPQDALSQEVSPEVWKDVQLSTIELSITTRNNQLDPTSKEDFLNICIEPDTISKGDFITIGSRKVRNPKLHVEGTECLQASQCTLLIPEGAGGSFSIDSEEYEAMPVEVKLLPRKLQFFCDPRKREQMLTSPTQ
The settings on record: direction down.

Assay [6] deals with protein kinases (human kinome) (Homo sapiens, UniProt Q14004). As to conditions: experiment wp137.
Chain of protein kinases (human kinome) (Homo sapiens, UniProt Q14004) (Q14004 whole entry): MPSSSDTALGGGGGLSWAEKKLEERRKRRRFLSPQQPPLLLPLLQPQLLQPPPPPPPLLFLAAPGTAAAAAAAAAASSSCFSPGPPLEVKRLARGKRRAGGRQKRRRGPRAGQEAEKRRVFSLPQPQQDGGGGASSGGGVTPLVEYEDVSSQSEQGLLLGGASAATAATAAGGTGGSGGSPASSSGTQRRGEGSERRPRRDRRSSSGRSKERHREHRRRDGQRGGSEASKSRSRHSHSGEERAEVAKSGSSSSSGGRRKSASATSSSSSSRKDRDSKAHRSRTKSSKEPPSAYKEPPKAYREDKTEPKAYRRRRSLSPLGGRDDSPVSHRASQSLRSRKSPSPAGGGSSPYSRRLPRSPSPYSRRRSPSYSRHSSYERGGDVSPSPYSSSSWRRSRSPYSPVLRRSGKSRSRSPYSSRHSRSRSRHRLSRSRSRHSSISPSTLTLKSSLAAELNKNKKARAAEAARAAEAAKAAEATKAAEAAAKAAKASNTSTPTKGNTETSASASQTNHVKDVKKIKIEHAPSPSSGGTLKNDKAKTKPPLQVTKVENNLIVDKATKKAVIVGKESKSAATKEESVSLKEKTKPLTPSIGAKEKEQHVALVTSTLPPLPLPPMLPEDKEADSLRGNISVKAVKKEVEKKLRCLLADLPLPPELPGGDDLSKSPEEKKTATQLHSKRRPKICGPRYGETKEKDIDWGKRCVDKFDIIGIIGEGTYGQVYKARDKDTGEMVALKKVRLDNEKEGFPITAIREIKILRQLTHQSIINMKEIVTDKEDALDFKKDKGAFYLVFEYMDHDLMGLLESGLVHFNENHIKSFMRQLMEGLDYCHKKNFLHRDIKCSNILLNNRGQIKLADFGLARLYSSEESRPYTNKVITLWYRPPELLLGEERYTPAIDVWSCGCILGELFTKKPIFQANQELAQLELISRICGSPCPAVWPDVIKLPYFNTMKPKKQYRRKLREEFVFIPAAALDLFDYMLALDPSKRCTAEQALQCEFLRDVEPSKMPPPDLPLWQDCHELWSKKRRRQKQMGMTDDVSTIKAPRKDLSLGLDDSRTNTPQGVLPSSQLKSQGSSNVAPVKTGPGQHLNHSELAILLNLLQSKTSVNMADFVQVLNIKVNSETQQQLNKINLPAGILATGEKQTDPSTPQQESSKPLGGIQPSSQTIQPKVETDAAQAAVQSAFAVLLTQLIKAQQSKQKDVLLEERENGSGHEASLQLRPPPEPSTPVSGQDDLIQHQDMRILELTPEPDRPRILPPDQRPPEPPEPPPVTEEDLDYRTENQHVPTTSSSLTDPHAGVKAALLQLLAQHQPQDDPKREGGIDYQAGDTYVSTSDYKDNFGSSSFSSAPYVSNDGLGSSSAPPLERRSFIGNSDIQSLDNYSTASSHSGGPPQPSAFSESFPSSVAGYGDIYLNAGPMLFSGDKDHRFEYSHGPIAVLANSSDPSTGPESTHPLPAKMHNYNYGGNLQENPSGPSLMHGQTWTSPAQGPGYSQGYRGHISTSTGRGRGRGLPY
The target in assay [7] is protein kinases (human kinome) (Homo sapiens, UniProt P24941). As to conditions: experiment wp137.
Assay [8] deals with T2, protein kinases (human kinome) (Homo sapiens, UniProt Q969Z0).
T2 sequence (Q969Z0 108-631): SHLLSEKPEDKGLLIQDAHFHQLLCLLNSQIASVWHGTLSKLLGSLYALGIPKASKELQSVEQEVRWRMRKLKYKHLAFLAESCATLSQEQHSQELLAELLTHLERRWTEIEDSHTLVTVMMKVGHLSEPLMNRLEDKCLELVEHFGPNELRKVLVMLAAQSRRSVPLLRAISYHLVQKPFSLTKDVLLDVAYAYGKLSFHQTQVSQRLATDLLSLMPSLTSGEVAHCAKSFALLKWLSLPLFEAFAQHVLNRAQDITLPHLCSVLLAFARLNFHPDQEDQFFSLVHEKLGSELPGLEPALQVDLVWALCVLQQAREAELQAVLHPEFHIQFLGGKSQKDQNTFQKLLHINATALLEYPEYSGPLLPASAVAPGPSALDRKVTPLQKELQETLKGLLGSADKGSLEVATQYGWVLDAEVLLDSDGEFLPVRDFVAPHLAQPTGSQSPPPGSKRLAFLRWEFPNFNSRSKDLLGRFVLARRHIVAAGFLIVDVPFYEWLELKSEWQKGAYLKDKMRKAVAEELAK
As to conditions: Accession Q969Z0-1; experiment wp081; direction down.

[9] abbreviates: MAPK9 P45984-1, experiment wp045.
Where [10] appears, read: MAPK9 P45984-1, experiment wp103.
Setting [11] is: MAPK9 P45984-1, experiment wp105.
The mark [12] stands for this setting: MAPK9 P45984-1, experiment wp107.
Where [13] appears, read: MAPK9 P45984-1, experiment wp114.
The mark [14] stands for this setting: MAPK9 P45984-1, experiment wp117.
Setting [15] is: MAPK9 P45984-1, experiment wp160, 2 hr.
Where [16] appears, read: MAPK9 P45984-1, experiment wp160, 4 hr.
Where [17] appears, read: MAPK9 P45984-1, experiment wp160, 8 hr.
Setting [18] is: MAPK9 P45984-1, experiment wp172.
[19] abbreviates: MAPK9 P45984-1, experiment wp168.

Chain of protein kinases (human kinome) (Homo sapiens, UniProt Q16584) (Q16584 whole entry): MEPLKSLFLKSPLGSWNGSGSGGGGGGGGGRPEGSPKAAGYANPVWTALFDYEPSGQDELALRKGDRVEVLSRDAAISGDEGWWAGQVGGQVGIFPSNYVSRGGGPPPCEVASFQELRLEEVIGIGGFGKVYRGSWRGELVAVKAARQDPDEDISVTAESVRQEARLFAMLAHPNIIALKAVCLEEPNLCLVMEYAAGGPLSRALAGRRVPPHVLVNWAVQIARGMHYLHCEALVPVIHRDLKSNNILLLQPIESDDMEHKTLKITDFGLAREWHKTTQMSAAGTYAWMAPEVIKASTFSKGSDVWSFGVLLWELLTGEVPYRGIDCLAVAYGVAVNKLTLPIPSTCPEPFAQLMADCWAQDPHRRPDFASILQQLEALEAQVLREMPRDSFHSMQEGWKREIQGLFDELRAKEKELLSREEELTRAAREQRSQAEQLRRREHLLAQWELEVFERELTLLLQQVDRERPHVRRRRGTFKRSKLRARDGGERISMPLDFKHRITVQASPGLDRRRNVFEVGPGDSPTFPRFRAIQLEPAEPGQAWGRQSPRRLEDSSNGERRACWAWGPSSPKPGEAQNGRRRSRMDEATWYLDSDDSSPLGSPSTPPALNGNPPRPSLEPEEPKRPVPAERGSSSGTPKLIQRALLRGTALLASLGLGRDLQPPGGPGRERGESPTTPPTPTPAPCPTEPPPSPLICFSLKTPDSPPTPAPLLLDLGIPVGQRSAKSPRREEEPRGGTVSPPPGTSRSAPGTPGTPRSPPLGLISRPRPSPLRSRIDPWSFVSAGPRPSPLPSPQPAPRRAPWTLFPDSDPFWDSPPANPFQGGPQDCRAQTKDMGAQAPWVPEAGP

As for `Cc1ccc(NC(=O)c2cccc(C(F)(F)F)c2)cc1N1Cc2cnc(Nc3ccc(N4CCN(Cc5cn(CCCCCOc6cccc7c6C(=O)N(C6CCC(=O)NC6=O)C7=O)nn5)CC4)nc3)nc2N(C)C1=O` (centres unmarked) [DB0646, N-(3-(7-((6-(4-((1-(5-((2-(2,6-Dioxopiperidin-3-yl)-1,3-dioxoisoindolin-4-yl)oxy)pentyl)-1H-1,2,3-triazol-4-yl)methyl)piperazin-1-v)pyridin-3-yl)amino)-1-methyl-2-oxo-1,4-dihydropyrimido[4,5-d]pyrimidin-3(2H)-yl)-4-methylphenyl)-3-(trifluoromethyl)benzamide], the figures for the “logFC MAP3K11 (Q16584)” value in assay [1] (experiment wp107) and in assay [1] (experiment wp117) were −0.5077 and −0.4308, respectively. Further, the “logFC of CSK” value in assay [2] (experiment wp045) is listed as −1.542; in assay [2] (experiment wp103) it was −1.282; in assay [2] (experiment wp105) it was −0.6868; in assay [2] (experiment wp107) it was −1.311; in assay [2] (experiment wp114), −0.6932; in assay [2] (experiment wp117), −1.414. For the same compound, the “logFC of CSK” value in assay [2] (experiment wp152) is listed as −1.513; in assay [2] (experiment wp160, 2 hr), −0.8308; in assay [2] (experiment wp160, 4 hr), −1.416; in assay [2] (experiment wp160, 8 hr), −1.753; in assay [2] (experiment wp172), −0.8538. Moreover, the “logFC CSK” value in assay [2] (experiment wp045) is reported as −1.542; in assay [2] (experiment wp103), −1.282; in assay [2] (experiment wp105) it was −0.6868; in assay [2] (experiment wp107) it was −1.311; in assay [2] (experiment wp114), −0.6932; in assay [2] (experiment wp117), −1.414. For the same compound, the “logFC CSK” value in assay [2] (experiment wp152) is given as −1.513; in assay [2] (experiment wp160, 2 hr), −0.8308; in assay [2] (experiment wp160, 4 hr), −1.416; in assay [2] (experiment wp160, 8 hr), −1.753; in assay [2] (experiment wp172), −0.8538. In assay [3] (Experiment wp152, direction of change down), the “logFC MAPK9 (P45984)” value is listed as −2.161. Also, the logFC in assay [3] (setting [9]) is recorded as −1.344; in assay [3] (setting [10]) it was −1.045; in assay [3] (setting [11]) it was −0.929; in assay [3] (setting [12]), −1.414; in assay [3] (setting [13]) it was −0.5078; in assay [3] (setting [14]), −1.488. Further, the logFC was −0.7555 in assay [3] (setting [15]), −1.498 in assay [3] (setting [16]), −2.137 in assay [3] (setting [17]) and −0.8343 in assay [3] (setting [18]). Besides, the “logFC MAPK9” value is reported as −1.344 in assay [3] (setting [9]); −1.045 in assay [3] (setting [10]); −0.929 in assay [3] (setting [11]); −1.414 in assay [3] (setting [12]); −0.5078 in assay [3] (setting [13]); −1.488 in assay [3] (setting [14]). In addition, the “logFC MAPK9” value in assay [3] (setting [15]) is given as −0.7555; in assay [3] (setting [16]), −1.498; in assay [3] (setting [17]) it was −2.137; in assay [3] (setting [18]), −0.8343; in assay [3] (MAPK9 P45984, experiment wp152), −2.161.
On to `Cc1ccc(NC(=O)c2cccc(C(F)(F)F)c2)cc1N1Cc2cnc(Nc3ccc(N4CCN(CCCOc5cccc6c5C(=O)N(C5CCC(=O)NC5=O)C6=O)CC4)nc3)nc2N(C)C1=O` (centres unmarked) [DB0662], for which, in assay [1] (experiment wp168), the “logFC MAP3K11 (Q16584)” value is recorded as −0.7288. Also, in assay [2] (experiment wp168), the “logFC of CSK” value is listed as −1.833 and the “logFC CSK” value is −1.833. Further, in assay [3] (setting [19]), the logFC is −2.611 and the “logFC MAPK9” value is −2.611.
As for `Cc1ccc(C(=O)Nc2ccc(CN3CCN(CCCOCCOCCOCCNC(=O)COc4cccc5c4C(=O)N(C4CCC(=O)NC4=O)C5=O)CC3)c(C(F)(F)F)c2)cc1C#Cc1cnc2cccnn12` (centres unmarked) [SB1.G.187], the “logFC of CDK5” value is on record as −0.4804 in assay [4] (experiment wp056), −0.5924 in assay [4] (experiment wp103) and −0.6053 in assay [4] (experiment wp105). Further, the “logFC CDK5 (Q00535)” value in assay [4] (Experiment wp105, direction of change down) is on record as −0.6053; in assay [4] (Experiment wp107), −0.6778; in assay [4] (Experiment wp172), −0.8938; in assay [4] (experiment wp056, direction of change down), −0.4804; in assay [4] (experiment wp103, direction of change down) it was −0.5924; in assay [4] (experiment wp107, direction of change down), −0.6778. The “logFC CDK5 (Q00535)” value in assay [4] (experiment wp172, direction of change down) is reported as −0.8938. For the same compound, in assay [5] (Experiment wp056), the “logFC AGK (Q53H12)” value is recorded as −0.5707.
Consider `Nc1ncnc2c1c(-c1ccc(Oc3ccccc3)cc1)nn2[C@H]1CC[C@H](N2CCN(CCOCCNC(=O)CNc3cccc4c3C(=O)N(C3CCC(=O)NC3=O)C4=O)CC2)CC1` (some centres unmarked) [SB1.G.181], for which, in assay [2] (experiment wp071), the “logFC of CSK” value is given as −3.229 and the “logFC CSK” value is −3.229. Further, the “logFC AGK (Q53H12)” value in assay [5] (Experiment wp071) is on record as −0.3991.
Turning to `Cc1cnc(Nc2ccc(N3CCN(CCOCCOCCNC(=O)COc4cccc5c4C(=O)N(C4CCC(=O)NC4=O)C5=O)CC3)cc2)nc1Nc1cccc(S(=O)(=O)NC(C)(C)C)c1` (centres unmarked) [JWG.118], the “logFC AGK (Q53H12)” value in assay [5] (Experiment wp071) is reported as −0.5599.
In the case of `CC(C)S(=O)(=O)c1ccccc1Nc1nc(Nc2ccc(N3CCN(CCOCCOCCC(=O)NCCNc4cccc5c4CN(C4CCC(=O)NC4=O)C5=O)CC3)cc2)ncc1Cl` (centres unmarked) [TL13.97], the “logFC CDK5 (Q00535)” value in assay [4] (experiment wp137) is listed as −1.114; in assay [4] (experiment wp137, direction of change down), −1.114. Besides, the “logFC MAP3K11 (Q16584)” value in assay [1] (experiment wp137) is on record as −0.7626. For the same compound, the “logFC CDK13” value in assay [6] (Accession Q14004-1) was −0.7359. Also, the “logFC CDK13 (Q14004-1)” value in assay [6] is −0.7359. For the same compound, the “logFC CDK2 (P24941-1)” value in assay [7] and in assay [7] (direction of change down) was −0.7834 in each case.
Take `Cn1c(=O)c(-c2c(Cl)cccc2Cl)cc2cnc(Nc3ccc(OCCNC(=O)CCCCCCNC(=O)COc4cccc5c4C(=O)N(C4CCC(=O)NC4=O)C5=O)cc3)nc21` (centres unmarked) [SB1.G.192.1]: the “logFC of CSK” value in assay [2] (experiment wp071) is listed as −2.271; in assay [2] (experiment wp081), −1.966; in assay [2] (experiment wp131), −1.816. Further, the figures for the “logFC CSK” value in assay [2] (experiment wp071), in assay [2] (experiment wp081) and in assay [2] (experiment wp131) were −2.271, −1.966 and −1.816, respectively. In addition, the “logFC TBRG4” value in assay [8] was −0.3452.
